# Data published in the supplement of paper PMC10307832.
# How the values were obtained:
# Assay in all cases: relative viability (nuclei count vs DMSO), 5 days (fraction); higher = more cells survive
# [1] = compound: Cc1ccc(-n2nc(C(C)(C)C)cc2NC(=O)Nc2ccc(OCCN3CCOCC3)c3ccccc23)cc1 [Doramapimod] + Cc1nc(Nc2ncc(C(=O)Nc3c(C)cccc3Cl)s2)cc(N2CCN(CCO)CC2)n1 [Dasatinib] (partner 0.075 µM)
# In short: (§1)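 After 5 days of treatment, lung cancer cells in 1536-well plates were fixed and stained in a single step (final 0.05% Triton X-100, 1% formaldehyde, 1 ug/ml Hoechst) and their nuclei counted on 4× images. Treatment had been applied by pin tool the day after seeding as one drug alone or as a fixed anchor-drug dose with five library-drug doses (not always all listed) in √10 steps. Relative viability is the nuclei count of treated wells divided by that of vehicle wells, and values are medians of duplicate plates.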
# [2] = compound: Cc1ccc(-n2nc(C(C)(C)C)cc2NC(=O)Nc2ccc(OCCN3CCOCC3)c3ccccc23)cc1 [Doramapimod] + CCNC(=O)c1noc(-c2cc(C(C)C)c(O)cc2O)c1-c1ccc(CN2CCOCC2)cc1 [Luminespib] (partner 0.01 µM)
# In short: as §1
# [3] = compound: Cn1c(Nc2ccc(C(F)(F)F)cc2)nc2cc(Oc3ccnc(-c4ncc(C(F)(F)F)[nH]4)c3)ccc21 [RAF265] + O=C(CCCCCCC(=O)Nc1ccccc1)NO [Vorinostat] (partner 1 µM)
# In short: as §1
# [4] = compound: Cc1ccc(-n2nc(C(C)(C)C)cc2NC(=O)Nc2ccc(OCCN3CCOCC3)c3ccccc23)cc1 [Doramapimod] + Cc1cc(Nc2cc(N3CCN(C)CC3)nc(Sc3ccc(NC(=O)C4CC4)cc3)n2)n[nH]1 [Tozasertib] (partner 0.1 µM)
# In short: as §1
cell line,measurement,setting,value
UMC-11,relative viability,[1]; first compound 0.02 µM,0.435
same,relative viability,[1]; first compound 0.06325 µM,0.447
same,relative viability,[1]; first compound 0.2 µM,0.46
same,relative viability,[1]; first compound 0.6325 µM,0.52
same,relative viability,[1]; first compound 2 µM,0.368
same,relative viability,[2]; first compound 0.02 µM,0.911
same,relative viability,[2]; first compound 0.06325 µM,0.869
same,relative viability,[2]; first compound 0.2 µM,0.904
same,relative viability,[2]; first compound 0.6325 µM,0.965
same,relative viability,[2]; first compound 2 µM,0.913
same,relative viability,[3]; first compound 0.01 µM,0.458
same,relative viability,[3]; first compound 0.03162 µM,0.4
same,relative viability,[3]; first compound 0.1 µM,0.343
same,relative viability,[3]; first compound 0.3162 µM,0.357
same,relative viability,[3]; first compound 1 µM,0.32
same,relative viability,[4]; first compound 0.02 µM,0.2
same,relative viability,[4]; first compound 0.06325 µM,0.174
same,relative viability,[4]; first compound 0.2 µM,0.199
same,relative viability,[4]; first compound 0.6325 µM,0.195
same,relative viability,[4]; first compound 2 µM,0.205
